Converted amounts (≈) assume the structure as drawn.
Legend:
[1] = system: rhinovirus A16; assay: Antiviral activity against Human rhinovirus 16 infected in human HeLa Ohio cells assessed as inhibition of virus-induced cytopathic effect by CellTiter-Glo assay; assay type: functional, organism-based; settings: Rhinovirus A
[2] = target: T1, Cytochrome P450 1A2 (Homo sapiens, UniProt P05177); assay: Time dependent inhibition of CYP1A2; assay type: ADME
T1 sequence (P05177 whole entry): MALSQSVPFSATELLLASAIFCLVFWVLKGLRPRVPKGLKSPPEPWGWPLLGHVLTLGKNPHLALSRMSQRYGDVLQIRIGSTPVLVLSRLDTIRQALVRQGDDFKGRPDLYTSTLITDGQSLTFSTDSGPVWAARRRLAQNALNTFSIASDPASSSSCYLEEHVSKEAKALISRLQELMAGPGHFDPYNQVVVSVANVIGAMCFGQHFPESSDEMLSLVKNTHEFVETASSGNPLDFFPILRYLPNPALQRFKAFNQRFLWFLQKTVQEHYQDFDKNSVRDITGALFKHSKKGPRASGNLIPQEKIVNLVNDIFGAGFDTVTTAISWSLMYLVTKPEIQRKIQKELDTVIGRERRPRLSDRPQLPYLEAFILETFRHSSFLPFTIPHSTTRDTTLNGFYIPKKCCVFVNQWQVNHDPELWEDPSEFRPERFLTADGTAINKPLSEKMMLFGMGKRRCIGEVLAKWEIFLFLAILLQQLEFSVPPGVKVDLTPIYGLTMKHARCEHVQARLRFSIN

[3] = Half life in rat at 2 mg/kg, iv; assay type: ADME, organism-based; design: dose 2 mg/kg, route intravenous; settings: in vivo
[4] = Oral bioavailability in rat; assay type: ADME, organism-based; settings: in vivo
[5] = target: T2, Cytochrome P450 3A4 (Homo sapiens, UniProt P08684); assay: Inhibition of CYP3A4; assay type: ADME
[6] = Intrinsic clearance in Sprague-Dawley rat hepatocytes assessed per 10^6 cells preincubated for 5 mins measured after 90 mins; assay type: ADME, cell-based, Liver, Hepatocyte
[7] = target: T3, Cytochrome P450 2C19 (Homo sapiens, UniProt P33261); assay: Inhibition of CYP2C19; assay type: ADME
[8] = Unbound fraction in human plasma; assay type: ADME, cell-free
[9] = Aqueous equilibrium solubility of the compound by shake-flask technique; assay type: physicochemical; settings: buffer
[10] = target: T4, PXR (NR1I2) (Homo sapiens, UniProt O75469); assay: Activation of human PXR expressed in african green monkey CV1 cells transfected with pSG5-hPXRDATG and (ER6)3-tk-CAT reporter assessed as maximal activation relative to control; assay type: cell-based, CV-1
T4 sequence (O75469 whole entry): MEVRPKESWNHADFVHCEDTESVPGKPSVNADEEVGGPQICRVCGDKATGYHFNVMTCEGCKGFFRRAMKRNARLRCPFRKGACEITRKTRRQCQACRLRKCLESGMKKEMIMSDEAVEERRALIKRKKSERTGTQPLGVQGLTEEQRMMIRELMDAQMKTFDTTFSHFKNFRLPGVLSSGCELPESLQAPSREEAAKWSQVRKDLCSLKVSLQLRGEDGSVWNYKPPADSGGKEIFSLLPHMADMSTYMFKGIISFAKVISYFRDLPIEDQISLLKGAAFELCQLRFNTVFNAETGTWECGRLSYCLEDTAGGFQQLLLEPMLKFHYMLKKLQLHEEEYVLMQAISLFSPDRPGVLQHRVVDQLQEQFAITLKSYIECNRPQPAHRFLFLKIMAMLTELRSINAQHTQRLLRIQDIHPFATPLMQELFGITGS

[11] = target: T5, Cytochrome P450 2C9 (Homo sapiens, UniProt P11712); assay: Inhibition of CYP2C9; assay type: ADME
[12] = target: T3, Cytochrome P450 2C19; assay: Time dependent inhibition of CYP2C19; assay type: ADME
[13] = Unbound fraction in rat plasma; assay type: ADME, cell-free
[14] = Volume of distribution at steady state in rat at 2 mg/kg, iv; assay type: ADME, organism-based; design: dose 2 mg/kg, route intravenous; settings: in vivo, read-out: Vdss
[15] = Intrinsic clearance in human microsomes after 45 mins by HPLC method; assay type: ADME, Microsome
[16] = Clearance in rat at 2 mg/kg, iv; assay type: ADME, organism-based; design: dose 2 mg/kg, route intravenous; settings: in vivo
[17] = target: T2, Cytochrome P450 3A4; assay: Time dependent inhibition of CYP3A4; assay type: ADME
[18] = system: rhinovirus A2; assay: Antiviral activity against Human rhinovirus 2 infected in human HeLa Ohio cells assessed as inhibition of virus-induced cytopathic effect by CellTiter-Glo assay; assay type: functional, organism-based; settings: Rhinovirus A
[19] = target: T6, Nuclear receptor subfamily 1 group I member 2 (Homo sapiens, UniProt O75469); assay: Activation of human PXR expressed in african green monkey CV1 cells transfected with pSG5-hPXRDATG and (ER6)3-tk-CAT reporter; assay type: cell-based, CV-1
T6 sequence (O75469 whole entry): T4 sequence (O75469 whole entry)

[20] = target: T5, Cytochrome P450 2C9; assay: Time dependent inhibition of CYP2C9; assay type: ADME
[21] = target: T7, Cytochrome P450 2D6 (Homo sapiens, UniProt P10635); assay: Time dependent inhibition of CYP2D6; assay type: ADME
[22] = target: T7, Cytochrome P450 2D6; assay: Inhibition of CYP2D6; assay type: ADME
[23] = Chemical stability of compound assessed as half life; assay type: physicochemical
[24] = Lipophilicity, log D of the compound; assay type: physicochemical; settings: octanol/water
[25] = target: T1, Cytochrome P450 1A2; assay: Inhibition of CYP1A2; assay type: ADME
[26] = Apparent permeability of compound by PAMPA; assay type: ADME
[27] = system: rhinovirus B14; assay: Antiviral activity against Human rhinovirus 14 infected in human HeLa Ohio cells assessed as inhibition of virus-induced cytopathic effect by CellTiter-Glo assay; assay type: functional, organism-based; settings: Rhinovirus B

T3 sequence (P33261 whole entry): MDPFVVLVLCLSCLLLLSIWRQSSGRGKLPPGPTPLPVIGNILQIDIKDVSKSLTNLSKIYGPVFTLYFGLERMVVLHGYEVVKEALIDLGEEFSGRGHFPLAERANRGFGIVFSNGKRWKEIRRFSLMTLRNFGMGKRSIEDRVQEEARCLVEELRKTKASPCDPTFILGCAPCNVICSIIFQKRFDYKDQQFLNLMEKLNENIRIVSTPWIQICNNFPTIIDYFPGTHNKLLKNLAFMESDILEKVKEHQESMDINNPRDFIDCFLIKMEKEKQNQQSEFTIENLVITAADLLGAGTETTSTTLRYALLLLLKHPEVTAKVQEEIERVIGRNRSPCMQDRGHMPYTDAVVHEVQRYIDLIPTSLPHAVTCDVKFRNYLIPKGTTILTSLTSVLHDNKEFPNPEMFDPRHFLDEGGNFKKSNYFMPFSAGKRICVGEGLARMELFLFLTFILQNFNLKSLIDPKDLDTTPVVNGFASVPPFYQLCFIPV
T7 sequence (P10635 whole entry): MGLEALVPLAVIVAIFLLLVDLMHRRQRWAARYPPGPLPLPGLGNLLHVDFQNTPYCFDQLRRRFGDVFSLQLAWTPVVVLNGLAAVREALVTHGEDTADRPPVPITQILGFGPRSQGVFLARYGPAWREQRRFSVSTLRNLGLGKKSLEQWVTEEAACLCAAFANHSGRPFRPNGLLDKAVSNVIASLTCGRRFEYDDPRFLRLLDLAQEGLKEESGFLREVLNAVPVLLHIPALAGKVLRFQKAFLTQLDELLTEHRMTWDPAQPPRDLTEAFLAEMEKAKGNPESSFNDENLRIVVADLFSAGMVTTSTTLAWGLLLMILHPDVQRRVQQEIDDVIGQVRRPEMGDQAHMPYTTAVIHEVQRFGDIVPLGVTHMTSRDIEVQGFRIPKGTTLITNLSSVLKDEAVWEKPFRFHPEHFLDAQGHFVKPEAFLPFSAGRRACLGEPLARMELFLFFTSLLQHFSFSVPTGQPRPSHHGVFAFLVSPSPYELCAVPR
T5 sequence (P11712 whole entry): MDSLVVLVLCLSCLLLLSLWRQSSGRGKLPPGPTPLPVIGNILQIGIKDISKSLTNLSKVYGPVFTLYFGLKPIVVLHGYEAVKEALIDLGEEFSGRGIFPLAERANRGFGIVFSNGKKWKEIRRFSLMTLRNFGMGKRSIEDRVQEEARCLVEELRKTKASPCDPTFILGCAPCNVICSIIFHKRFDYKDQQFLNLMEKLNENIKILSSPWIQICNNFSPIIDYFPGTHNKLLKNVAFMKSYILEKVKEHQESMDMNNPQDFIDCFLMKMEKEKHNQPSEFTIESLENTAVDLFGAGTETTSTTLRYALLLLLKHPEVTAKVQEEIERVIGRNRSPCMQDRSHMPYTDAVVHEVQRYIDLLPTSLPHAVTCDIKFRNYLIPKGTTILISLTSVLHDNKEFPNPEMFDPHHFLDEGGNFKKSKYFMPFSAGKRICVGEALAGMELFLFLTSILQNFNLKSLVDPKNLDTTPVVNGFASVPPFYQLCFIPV
T2 sequence (P08684 whole entry): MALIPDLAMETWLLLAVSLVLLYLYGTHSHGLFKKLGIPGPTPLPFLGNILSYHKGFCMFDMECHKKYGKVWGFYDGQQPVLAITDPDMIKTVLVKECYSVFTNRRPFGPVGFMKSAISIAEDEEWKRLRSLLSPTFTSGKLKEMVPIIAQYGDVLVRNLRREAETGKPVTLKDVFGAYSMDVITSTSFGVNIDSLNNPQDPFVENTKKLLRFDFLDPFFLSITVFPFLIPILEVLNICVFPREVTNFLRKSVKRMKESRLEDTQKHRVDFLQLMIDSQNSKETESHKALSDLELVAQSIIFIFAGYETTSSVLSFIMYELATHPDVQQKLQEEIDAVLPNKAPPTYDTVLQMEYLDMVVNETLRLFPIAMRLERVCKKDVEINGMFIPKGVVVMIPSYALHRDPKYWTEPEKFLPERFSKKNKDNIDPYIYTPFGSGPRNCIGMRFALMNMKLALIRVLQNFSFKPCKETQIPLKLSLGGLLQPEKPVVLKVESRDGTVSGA

## CCOC(=O)c1ccc(OCC2CCN(c3ccc(C)nn3)C2)cc1 (stereo not drawn)
[1]
  IC50: 20 nM

## CCOC(=O)c1ccc(OCCC2(C#N)CCN(c3ccc(C)nn3)CC2)cc1
[1]
  IC50: 158 nM

## Cc1ccc(N2CC(COc3ccc(-c4noc(C)n4)cc3)C2)nn1
[2]
  IC50: > 50100 nM
[3]
  half-life: 2.2 h
[4]
  bioavailability: 60%
[5]
  IC50: > 10000 nM
[6]
  hepatocyte CLint: 5 µL/min/1e6 cells
[7]
  IC50: > 10000 nM
[1]
  IC50: 79.4 nM
[8]
  fraction unbound: 0.06
[9]
  solubility thermodynamic: 125 µM (≈ 42.2 µg/mL)
[10]
  Emax: 19%
[11]
  IC50: > 10000 nM
[12]
  IC50: > 50100 nM
[13]
  fraction unbound: 0.05
[14]
  Vd: 1.5 L/kg
[15]
  microsomal CLint: 26 µL/min/mg
[16]
  clearance: 9 mL/min/kg
[17]
  IC50: > 50100 nM
[18]
  IC50: 50.1 nM
[19]
  EC50: 31600 nM
[20]
  IC50: > 50100 nM
[21]
  IC50: > 50100 nM
[22]
  IC50: > 10000 nM
[23]
  half-life: > 200 h
[24]
  logD: 2.6
[25]
  IC50: > 10000 nM
[26]
  Papp: 47 ×10⁻⁶ cm/s

## CCOC(=O)c1ccc(OCCC2CCN(c3ccc(C)nn3)CC2)cn1
[1]
  IC50: 2510 nM

## CCOC(=O)c1ccc(OCC2CN(c3ccc(C)nn3)C2)cc1
[1]
  IC50: 63.1 nM

## CCOc1nnc2cc(OCCC3CCN(c4ccc(C)nn4)CC3)ccn12
[1]
  IC50: 1580 nM

## CCOC(=O)c1ccc(OCCC2CCN(c3ccc(C)nn3)CC2)nc1
[1]
  IC50: 63.1 nM

## CCOC(=O)c1ccc(COCC2CCN(c3ccc(C)nn3)CC2)cc1
[1]
  IC50: 100 nM

## CCOC(=O)c1ccc(CCN2CCN(c3ccc(C)nn3)CC2)cc1
[1]
  IC50: 79.4 nM

## Cc1ccc(N2CCC(CCOc3ccc(S(C)(=O)=O)cc3)CC2)nn1
[1]
  IC50: 2000 nM

## CCOC(=O)c1ccc(OCCC2CN(c3ccc(C)nn3)C2)cc1
[1]
  IC50: 31.6 nM

## Cc1cc(CCCOc2c(C)cc(-c3noc(C(F)(F)F)n3)cc2C)on1 [PLECONARIL]
[2]
  IC50: > 50100 nM
[27]
  IC50: < 100 nM
[6]
  hepatocyte CLint: 20 µL/min/1e6 cells
[7]
  IC50: > 10000 nM
[1]
  IC50: 1000 nM
[8]
  fraction unbound: 0.0013
[9]
  solubility thermodynamic: < 2 µM
[10]
  Emax: 88%
[11]
  IC50: > 10000 nM
[12]
  IC50: > 50100 nM
[13]
  fraction unbound: < 0.002
[15]
  microsomal CLint: 22 µL/min/mg
[18]
  IC50: 100 nM
[19]
  EC50: 251 nM
[20]
  IC50: > 50100 nM
[21]
  IC50: > 50100 nM
[22]
  IC50: 6310 nM
[24]
  logD: > 4.5
[25]
  IC50: > 10000 nM

## CCOC(=O)c1ccc(OCCC2CCN(c3ccc(C)nn3)CC2)cc1 [PIRODAVIR]
[27]
  IC50: < 100 nM
[1]
  IC50: 63.1 nM
[18]
  IC50: < 100 nM

## CCOC(=O)c1ccc(OCCC2CN(c3ccc(C)nn3)CCO2)cc1 (stereo not drawn)
[1]
  IC50: 63.1 nM

## Cc1ccc(N2CCC(CCOc3ccc([S+](C)[O-])cc3)CC2)nn1 (stereo not drawn)
[1]
  IC50: > 31600 nM

## CCOc1nc2ccc(OCCC3CCN(c4ccc(C)nn4)CC3)cn2n1
[1]
  IC50: 1580 nM

## CCOC(=O)c1ccc(COC2CN(c3ccc(C)nn3)C2)cc1
[1]
  IC50: 63.1 nM

## CCOC(=O)c1ccc(COC2CCN(c3ccc(C)nn3)CC2)cc1
[1]
  IC50: 25.1 nM
